ChEMBL document CHEMBL1141023, “DNA gyrase (GyrB)/topoisomerase IV (ParE) inhibitors: synthesis and antibacterial activity” (Bioorg Med Chem Lett, 2009)
Converted amounts (≈) assume the structure as drawn.

Assays:
Staphylococcus aureus [1] = assay: Antibacterial activity against Staphylococcus aureus ATCC 29213; type: functional
Enterococcus faecalis [2] = assay: Antibacterial activity against Enterococcus faecalis ATCC 29212; type: functional
[3] = Inhibition of Escherichia coli GyrB ATPase activity assessed as inorganic phosphate release by malachite green complex formation assay
Escherichia coli [4] = assay: Antibacterial activity against efflux pump mutant expressing Escherichia coli ATCC N43; type: functional
Streptococcus pyogenes = assay: Antibacterial activity against Streptococcus pyogenes ATCC 51339; type: functional
Staphylococcus aureus [5] = assay: Antibacterial activity against methicillin-resistant Staphylococcus aureus ATCC 700698; type: functional
[6] = Inhibition of Escherichia coli DNA topoisomerase 4 subunit B ParE assessed as inorganic phosphate release by malachite green complex formation assay
[7] = Toxicity against human HepG2 cells assessed as effect on mitochondrial dehydrogenase activity after 24 hrs; type: cell-based
Streptococcus pneumoniae = assay: Antibacterial activity against Streptococcus pneumoniae ATCC 49619; type: functional
Staphylococcus aureus [8] = assay: Antibacterial activity against methicillin-susceptible Staphylococcus aureus 601055; type: functional
Staphylococcus aureus [9] = assay: Antibacterial activity against methicillin-susceptible Staphylococcus aureus Smith ATCC 19636; type: functional
Staphylococcus aureus [10] = assay: Antibacterial activity against methicillin-resistant Staphylococcus aureus 43300; type: functional
Moraxella catarrhalis = assay: Antibacterial activity against Moraxella catarrhalis ATCC 25240; type: functional
Pseudomonas aeruginosa = assay: Antibacterial activity against Pseudomonas aeruginosa 101021; type: functional
Enterococcus faecalis [11] = assay: Antibacterial activity against vancomycin-resistant Enterococcus faecalis 1.5604; type: functional
Haemophilus influenzae = assay: Antibacterial activity against Haemophilus influenzae ATCC 49247; type: functional
Escherichia coli [12] = assay: Antibacterial activity against Escherichia coli ATCC 25922; type: functional
Neisseria gonorrhoeae = assay: Antimicrobial activity against Neisseria gonorrhoeae; type: functional

CCNC(=O)Nc1nc2cc(-c3cccnc3)cc(C(=O)N(C)C)n2n1
MIC (Staphylococcus aureus [1]): 256 µg/mL (≈ 724 µM)
MIC (Enterococcus faecalis [2]): 256 µg/mL (≈ 724 µM)
IC50 [3]: 3200 nM
MIC (Escherichia coli [4]): 256 µg/mL (≈ 724 µM)
MIC (Streptococcus pyogenes): 256 µg/mL (≈ 724 µM)

CCNC(=O)Nc1nc2cc(-c3cccnc3)cc(-c3cnn(C)c3)n2n1
MIC (Staphylococcus aureus [1]): 32 µg/mL (≈ 88.3 µM)
MIC (Enterococcus faecalis [2]): 8 µg/mL (≈ 22.1 µM)
IC50 [3]: 340 nM
MIC (Escherichia coli [4]): > 128 µg/mL
MIC (Streptococcus pyogenes): 32 µg/mL (≈ 88.3 µM)

CCNC(=O)Nc1cn2ccc(-c3cccnc3)cc2n1
MIC (Staphylococcus aureus [1]): 32 µg/mL (≈ 114 µM)
MIC (Enterococcus faecalis [2]): 32 µg/mL (≈ 114 µM)
IC50 [3]: 390 nM
MIC (Escherichia coli [4]): 32 µg/mL (≈ 114 µM)

CCNC(=O)Nc1nc2ccc(-c3cccnc3)cn2n1
MIC (Staphylococcus aureus [1]): > 256 µg/mL
MIC (Enterococcus faecalis [2]): > 256 µg/mL
IC50 [3]: 9640 nM

CCNC(=O)Nc1nc2cc(-c3cccnc3)cc(-c3cccnc3)n2n1
MIC (Staphylococcus aureus [1]): > 256 µg/mL
MIC (Enterococcus faecalis [2]): > 256 µg/mL
IC50 [3]: 610 nM
MIC (Escherichia coli [4]): > 256 µg/mL
MIC (Streptococcus pyogenes): > 256 µg/mL

CCNC(=O)Nc1nc2cc(-c3cccnc3)cc(-c3ccc(OC)cc3)n2n1
MIC (Staphylococcus aureus [1]): > 128 µg/mL
MIC (Enterococcus faecalis [2]): > 128 µg/mL
IC50 [3]: 370 nM
MIC (Escherichia coli [4]): > 128 µg/mL
MIC (Streptococcus pyogenes): > 128 µg/mL

CCNC(=O)Nc1nc2cc(-c3cccnc3)cc(-c3cnccn3)n2n1
MIC (Staphylococcus aureus [1]): > 128 µg/mL
MIC (Enterococcus faecalis [2]): > 128 µg/mL
IC50 [3]: 980 nM
MIC (Escherichia coli [4]): > 128 µg/mL
MIC (Streptococcus pyogenes): > 128 µg/mL

CCNC(=O)Nc1nc2cc(-c3cccnc3)cc(-c3nccs3)n2n1
MIC (Staphylococcus aureus [5]): 0.5 µg/mL (≈ 1.37 µM)
IC50 [6]: 11000 nM
IC50 at 24 h [7]: > 64 µg/mL
MIC (Streptococcus pneumoniae): 1 µg/mL (≈ 2.74 µM)
MIC (Staphylococcus aureus [8]): 1 µg/mL (≈ 2.74 µM)
MIC (Staphylococcus aureus [9]): 1 µg/mL (≈ 2.74 µM)
MIC (Staphylococcus aureus [10]): 1 µg/mL (≈ 2.74 µM)
MIC (Moraxella catarrhalis): 0.5 µg/mL (≈ 1.37 µM)
MIC (Pseudomonas aeruginosa): > 128 µg/mL
MIC (Staphylococcus aureus [1]): 1 µg/mL (≈ 2.74 µM)
MIC (Enterococcus faecalis [2]): 1 µg/mL (≈ 2.74 µM)
IC50 [3]: 42 nM
MIC (Enterococcus faecalis [11]): 1 µg/mL (≈ 2.74 µM)
MIC (Escherichia coli [4]): > 128 µg/mL
MIC (Streptococcus pyogenes): 1 µg/mL (≈ 2.74 µM)
MIC (Haemophilus influenzae): > 128 µg/mL
MIC (Escherichia coli [12]): > 128 µg/mL

CCNC(=O)Nc1nc2cc(-c3cccnc3)cc(-c3cn[nH]c3)n2n1
MIC (Staphylococcus aureus [1]): > 256 µg/mL
MIC (Enterococcus faecalis [2]): 8 µg/mL (≈ 23 µM)
IC50 [3]: 200 nM
MIC (Escherichia coli [4]): > 256 µg/mL
MIC (Streptococcus pyogenes): 4 µg/mL (≈ 11.5 µM)

CCNC(=O)Nc1nc2cc(-c3cccnc3)cc(C(=O)NCC)n2n1
MIC (Staphylococcus aureus [5]): 2 µg/mL (≈ 5.66 µM)
IC50 [6]: 40000 nM
IC50 at 24 h [7]: > 64 µg/mL
MIC (Streptococcus pneumoniae): 4 µg/mL (≈ 11.3 µM)
MIC (Staphylococcus aureus [8]): 4 µg/mL (≈ 11.3 µM)
MIC (Staphylococcus aureus [9]): 4 µg/mL (≈ 11.3 µM)
MIC (Staphylococcus aureus [10]): 4 µg/mL (≈ 11.3 µM)
MIC (Moraxella catarrhalis): 2 µg/mL (≈ 5.66 µM)
MIC (Pseudomonas aeruginosa): > 128 µg/mL
MIC (Staphylococcus aureus [1]): 8 µg/mL (≈ 22.6 µM)
MIC (Enterococcus faecalis [2]): 4 µg/mL (≈ 11.3 µM)
IC50 [3]: 41 nM
MIC (Enterococcus faecalis [11]): 4 µg/mL (≈ 11.3 µM)
MIC (Neisseria gonorrhoeae): 1 µg/mL (≈ 2.83 µM)
MIC (Escherichia coli [4]): 8 µg/mL (≈ 22.6 µM)
MIC (Streptococcus pyogenes): 8 µg/mL (≈ 22.6 µM)
MIC (Haemophilus influenzae): 16 µg/mL (≈ 45.3 µM)
MIC (Escherichia coli [12]): > 128 µg/mL

CCNC(=O)Nc1nc2cc(-c3cccnc3)cc(-c3cccc(NC(C)=O)c3)n2n1
MIC (Staphylococcus aureus [1]): > 256 µg/mL
MIC (Enterococcus faecalis [2]): > 256 µg/mL
IC50 [3]: 1080 nM
MIC (Escherichia coli [4]): > 256 µg/mL
MIC (Streptococcus pyogenes): > 256 µg/mL

CCNC(=O)Nc1nc2cc(-c3cccnc3)cc(-c3cccc(C(C)=O)c3)n2n1
MIC (Staphylococcus aureus [1]): > 256 µg/mL
MIC (Enterococcus faecalis [2]): > 256 µg/mL
IC50 [3]: 1010 nM
MIC (Escherichia coli [4]): > 256 µg/mL
MIC (Streptococcus pyogenes): > 256 µg/mL

CCNC(=O)Nc1nc2cc(-c3cccnc3)cc(-n3ccnc3)n2n1
MIC (Staphylococcus aureus [1]): 32 µg/mL (≈ 91.9 µM)
MIC (Enterococcus faecalis [2]): 32 µg/mL (≈ 91.9 µM)
IC50 [3]: 1150 nM
MIC (Escherichia coli [4]): 32 µg/mL (≈ 91.9 µM)
MIC (Streptococcus pyogenes): 32 µg/mL (≈ 91.9 µM)

CCNC(=O)Nc1nc2cc(-c3cccnc3)cc(-n3cncn3)n2n1
MIC (Staphylococcus aureus [1]): 16 µg/mL (≈ 45.8 µM)
MIC (Enterococcus faecalis [2]): 16 µg/mL (≈ 45.8 µM)
IC50 [3]: 1430 nM
MIC (Escherichia coli [4]): 32 µg/mL (≈ 91.6 µM)
MIC (Streptococcus pyogenes): 32 µg/mL (≈ 91.6 µM)

CCNC(=O)Nc1nc2cc(-c3cccnc3)cc(C(=O)OC)n2n1
MIC (Staphylococcus aureus [1]): > 256 µg/mL
MIC (Enterococcus faecalis [2]): > 256 µg/mL
IC50 [3]: 1300 nM
MIC (Escherichia coli [4]): > 256 µg/mL
MIC (Streptococcus pyogenes): > 256 µg/mL
